Tests used:
Assay in all cases: relative viability (nuclei count vs DMSO), 5 days (fraction); higher = more cells survive
NVP-TAE684 + Decitabine = compound: COc1cc(N2CCC(N3CCN(C)CC3)CC2)ccc1Nc1ncc(Cl)c(Nc2ccccc2S(=O)(=O)C(C)C)n1 [NVP-TAE684] + Nc1ncn([C@H]2C[C@H](O)[C@@H](CO)O2)c(=O)n1 [Decitabine] (partner 2 µM)
Method in brief: (§1)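 Lung cancer cell lines were seeded in 1536-well plates and dosed by pin tool the next day, with either a single drug or a fixed anchor-drug dose combined with five library-drug doses (not always all listed) spaced in √10 steps. Five days later, one step fixed the cells and stained their nuclei (final 0.05% Triton X-100, 1% formaldehyde, 1 ug/ml Hoechst), and nuclei were counted on 4× images. Relative viability is the nuclei count in treated wells divided by the count in vehicle wells, and each value is the median of duplicate plates.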

[1] = compound: C1=CC=C2C(=C1)N=C(S2)C(C#N)C3=NC(=NC=C3)NCCC4=CN=CC=C4 + Nc1ncn([C@H]2C[C@H](O)[C@@H](CO)O2)c(=O)n1 [Decitabine] (partner 2 µM)
Method in brief: as §1

CUDC-101 + Lapatinib = compound: C#Cc1cccc(Nc2ncnc3cc(OC)c(OCCCCCCC(=O)NO)cc23)c1 [CUDC-101] + CS(=O)(=O)CCNCc1ccc(-c2ccc3ncnc(Nc4ccc(OCc5cccc(F)c5)c(Cl)c4)c3c2)o1 [Lapatinib] (partner 2 µM)
Method in brief: as §1

[2] = compound: C1=CC=C2C(=C1)N=C(S2)C(C#N)C3=NC(=NC=C3)NCCC4=CN=CC=C4 + Cc1nc(NC(=O)N2CCC[C@H]2C(N)=O)sc1-c1ccnc(C(C)(C)C(F)(F)F)c1 [Alpelisib] (partner 2 µM)
Method in brief: as §1

Cell Line	relative viability (NVP-TAE684 + Decitabine; first compound 0.2 µM)	relative viability (NVP-TAE684 + Decitabine; first compound 0.6325 µM)	relative viability (NVP-TAE684 + Decitabine; first compound 2 µM)	relative viability ([1]; first compound 0.005 µM)	relative viability ([1]; first compound 0.01581 µM)	relative viability ([1]; first compound 0.05 µM)	relative viability ([1]; first compound 0.1581 µM)	relative viability ([1]; first compound 0.5 µM)	relative viability (CUDC-101 + Lapatinib; first compound 0.01 µM)	relative viability (CUDC-101 + Lapatinib; first compound 0.03162 µM)	relative viability (CUDC-101 + Lapatinib; first compound 0.1 µM)	relative viability (CUDC-101 + Lapatinib; first compound 0.3162 µM)	relative viability (CUDC-101 + Lapatinib; first compound 1 µM)	relative viability ([2]; first compound 0.005 µM)	relative viability ([2]; first compound 0.01581 µM)	relative viability ([2]; first compound 0.05 µM)	relative viability ([2]; first compound 0.1581 µM)	relative viability ([2]; first compound 0.5 µM)
EKVX	0.317	0.354	0.325	0.152	0.286	0.309	0.329	0.23	0.255	0.199	0.22	0.203	0.169	0.763	0.981	0.902	0.844	0.69
NCI-H1650	0.399	0.411	0.343	0.335	0.333	0.496	0.432	0.407	0.833	0.72	0.963	0.772	0.48	–	–	–	–	–
NCI-H1703	–	–	–	–	–	–	–	–	1.31	1.03	1.07	1.18	0.765	0.338	0.31	0.344	0.362	0.357
NCI-H727	0.836	0.771	0.552	0.992	0.879	0.983	1	0.786	0.825	0.531	0.844	0.801	0.678	0.508	0.508	0.566	0.565	0.409
NCI-H838	0.456	0.464	0.314	0.435	0.461	0.425	0.47	0.445	0.934	1	1.03	1.11	0.552	0.841	0.965	0.959	0.961	0.852
NCI-H1944	0.437	0.519	0.413	0.404	0.497	0.412	0.433	0.388	0.777	0.747	0.799	0.709	0.5	0.799	0.86	0.771	0.835	0.803
SK-LU-1	0.58	0.658	0.602	0.496	0.762	0.68	0.727	0.558	1.01	0.922	0.712	0.844	0.446	–	0.962	0.824	1.27	0.858
LC-2-ad	0.754	0.78	0.606	0.698	0.819	0.818	0.827	0.726	0.984	1.02	1.06	0.863	0.198	0.768	0.867	0.822	0.966	0.734
EBC-1	–	–	–	–	–	–	–	–	0.224	0.212	0.214	0.215	0.196	0.819	0.935	0.76	0.829	0.925
NCI-H2342	0.727	0.835	0.632	0.727	0.844	0.694	0.837	0.71	–	–	–	–	–	–	–	–	–	–
SW 900	0.433	0.444	0.421	0.393	0.342	0.401	0.557	0.391	–	–	–	–	–	–	–	–	–	–
IA-LM	–	–	–	–	–	–	–	–	0.999	0.666	0.605	0.653	0.305	–	0.628	0.608	0.916	0.734
NCI-H522	0.604	0.731	0.66	0.718	0.651	0.607	0.639	0.66	–	–	–	–	–	–	–	–	–	–
CAL-12T	–	–	–	–	–	–	–	–	0.796	0.603	0.763	0.64	0.567	0.982	1.23	1.31	1.49	1.05
NCI-H1299	–	–	–	–	–	–	–	–	0.97	0.917	0.883	0.973	0.857	1.06	1.14	1.04	1.13	1.1
NCI-H2228	–	–	–	–	–	–	–	–	1.06	1.49	1.12	0.977	0.412	0.513	0.715	0.754	0.818	0.524
NCI-H441	0.235	0.279	0.232	0.267	0.303	0.252	0.246	0.239	–	–	–	–	–	–	0.623	0.803	1.27	0.487
NCI-H1563	–	–	–	–	–	–	–	–	0.846	0.814	1.17	1.13	0.877	0.924	0.869	0.947	0.962	0.861
NCI-H1648	0.39	0.449	0.27	–	0.438	–	0.535	0.388	–	–	–	–	–	–	–	–	–	–
LCLC-103H	0.7	0.69	0.683	0.723	0.731	0.69	0.762	0.751	–	–	–	–	–	0.926	0.983	0.971	0.901	0.915
Calu-6	–	–	–	–	–	–	–	–	1.08	1.12	1.09	0.791	0.658	0.957	0.921	0.921	1.03	0.998

— the supplement of paper PMC10307832
